Where “and” joins values, the source holds several entries; their conditions need not be identical. Equal entries are not always repeated.
Assays:
[1] = system: DBA1/J mice with collagen-induced arthritis; test: Collagen induced arthritis (CIA); type: in vivo, mouse
Source text: CIA was induced in 8-week-old male DBA1/J mice (Jackson Laboratories) using a standard protocol (Courtenay et al., “Immunisation Against Heterologous Type II Collagen Induces Arthritis in Mice,” Nature 283 (5748):666-668 (1980); Nagler-Anderson et al., “Suppression of Type II Collagen-Induced Arthritis by Intragastric Administration of Soluble Type II Collagen,” Proc. Natl. Acad. Sci. U.S.A. 83 (19):7443-7446 (1986), which are hereby incorporated by reference in their entirety). Briefly, bovine type II collagen (Chondrex, Redmond, Wash.) was dissolved overnight in acetic acid 0.1 N and then homogenized at 1:1 with Complete Freund's Adjuvant (CFA, Difco, Detroit, Mich.). Anesthetized mice were injected intradermally with 100 μg of type II collagen emulsified in CFA in the tail. The new Trpv2 agonist LER13 (10 mg/Kg) or control vehicle (PBS 50%, PEG300 40%, PG 5%, PS80 5%) was started on day 10 (D10) and administered intra-peritoneally every-other-day (from D10 until day 55). On day 21 (D21), mice received a booster injection of 100 μg of type II collagen in incomplete Freund's adjuvant. Clinical signs of arthritis were evident on day 24 (D24).
Arthritis severity in CIA mice was scored using a modified scoring system based on Jirholt et al., “Genetic Linkage Analysis of Collagen-Induced Arthritis in the Mouse,” Eur. J. Immunol. 28 (10):3321-3328 (1998), which is hereby incorporated by reference in its entirety. Briefly, the modified scoring system ranged from 0-16 per mouse per day and included a functional component of disease severity (non-weight bearing) in the maximum score of 4 per paw. The arthritis severity index (ASI), which is the sum of all scores obtained during the observation period, was used to compare treatment groups as it provides a comprehensive assessment of arthritis severity over time, and correlates with histologic damage (Brenner et al., “The Non-MHC Quantitative Trait Locus Cia10 Contains a Major Arthritis Gene and Regulates Disease Severity, Pannus Formation and Joint Damage,” Arthritis Rheum. 52 (1):322-332 (2005); Brenner et al., “The Non-MHC Quantitative Trait Locus Cia5 Contains Three Major Arthritis Genes that Differentially Regulate Disease Severity, Pannus Formation, and Joint Damage in Collagen- and Pristane-Induced Arthritis,” J. Immunol. 174 (12):7894-7903 (2005), which are hereby incorporated by reference in their entirety).

FLS = FLS invasion, focused library screen (Table 1); type: cell-based; details: evaluated over 24 hours in vitro
Method: The in vitro invasiveness of FLS was assayed in a transwell system using Matrigel-coated inserts (BD Biosciences, Franklin Lakes, N.J.), as previously described (Tolboom et al., “Invasiveness of Fibroblast-Like Synoviocytes is an Individual Patient Characteristic Associated with the Rate of Joint Destruction in Patients with Rheumatoid Arthritis,” Arthritis Rheum. 52 (7):1999-2002 (2005); Laragione et al., “The Arthritis Severity Locus Cia5d is a Novel Genetic Regulator of the Invasive Properties of Synovial Fibroblasts,” Arthritis Rheum. 58 (8):2296-2306 (2008), which are hereby incorporated by reference in their entirety). Briefly, 70-80% confluent cells were harvested by trypsin-EDTA digestion, and re-suspended at 2.0×10^4 cells in 500 μl of serum-free DMEM. Cells were placed in the upper compartment of the Matrigel-coated inserts. Where indicated, O1821, LER13, or vehicle was added to the upper chamber. The lower compartment was filled with complete media and the plates were incubated at 37° C. for 24 hours. After 24 hours the upper surface of the insert was wiped with cotton-swabs to remove non-invading cells and the Matrigel layer. The opposite side of the insert was stained with Crystal Violet (Sigma) and the total number of cells that invaded through Matrigel counted at 100× magnification. Experiments were done in duplicate.

FLS from RA patients = test: Matrigel transwell invasion assay, RA FLS; type: cell-based, human
Source text: Human synovial tissues were obtained from RA patients undergoing elective orthopedic surgery. All patients met the American College of Rheumatology criteria for RA (Arnett et al, “The American Rheumatism Association 1987 Revised Criteria for the Classification of Rheumatoid Arthritis,” Arthritis Rheum. 31 (3):315-324 (1988), which is hereby incorporated by reference in its entirety). Informed consent was obtained from all participating subjects under an Institutional Review Board-approved protocol through the Feinstein Institute's Tissue Donation Program.
The in vitro invasiveness of FLS was assayed in a transwell system using Matrigel-coated inserts (BD Biosciences, Franklin Lakes, N.J.), as previously described (Tolboom et al., “Invasiveness of Fibroblast-Like Synoviocytes is an Individual Patient Characteristic Associated with the Rate of Joint Destruction in Patients with Rheumatoid Arthritis,” Arthritis Rheum. 52 (7):1999-2002 (2005); Laragione et al., “The Arthritis Severity Locus Cia5d is a Novel Genetic Regulator of the Invasive Properties of Synovial Fibroblasts,” Arthritis Rheum. 58 (8):2296-2306 (2008), which are hereby incorporated by reference in their entirety). […] The opposite side of the insert was stained with Crystal Violet (Sigma) and the total number of cells that invaded through Matrigel counted at 100× magnification. […]

cannabinoid receptors = details: cited from earlier work
Trpv1 = Trpv1 (Homo sapiens, UniProt Q8NER1); details: cited from earlier work
MMP-3 = test: IL-1β-induced MMP-3 expression (qPCR) in RA FLS; type: cell-based, human; details: IL-1β 10 ng/ml 48 hours, 10 μM, n=6 RA
Method: The qPCR conditions used have been previously described (Laragione et al., “Cia5d Regulates a New Fibroblast-Like Synoviocyte Invasion-Associated Gene Expression Signature,” Arthritis Res. Ther. 10 (4):R92 (2008), which is hereby incorporated by reference in its entirety). Briefly, total RNA (200 ng) from each sample was reverse transcribed using Superscript III (Invitrogen). MMP-2 (forward-[…] (SEQ ID NO: 1); reverse-GGTATCCATCGCCATGCT (SEQ ID NO: 2) and MMP-3 (forward-CCAGGTGTGGAGTTCCTGA (SEQ ID NO: 3); reverse-[…] (SEQ ID NO: 4)) primers were designed based on the Universal ProbeLibrary (Roche, Indianapolis, Ind.). Reactions were prepared with Absolute Blue qPCR Mix (Thermo Fisher, Waltham, Mass.), and run in duplicate on a LightCycler 480 thermocycler (Roche) using Relative Quantitative Software (Roche). Ct (threshold cycle) values were adjusted for GAPDH in each sample (ΔCt). Fold differences were calculated with the 2^−ΔΔCt method (Livak et al., “Analysis of Relative Gene Expression Data Using Real-Time Quantitative PCR and the 2(-Delta Delta C(T)) Method,” Methods 25 (4):402-408 (2001), which is hereby incorporated by reference in its entirety).

[2] = 10 mg/Kg IP every-other-day from D10, scoring to D76

Chain of Trpv1 (Q8NER1 whole entry, species assumed): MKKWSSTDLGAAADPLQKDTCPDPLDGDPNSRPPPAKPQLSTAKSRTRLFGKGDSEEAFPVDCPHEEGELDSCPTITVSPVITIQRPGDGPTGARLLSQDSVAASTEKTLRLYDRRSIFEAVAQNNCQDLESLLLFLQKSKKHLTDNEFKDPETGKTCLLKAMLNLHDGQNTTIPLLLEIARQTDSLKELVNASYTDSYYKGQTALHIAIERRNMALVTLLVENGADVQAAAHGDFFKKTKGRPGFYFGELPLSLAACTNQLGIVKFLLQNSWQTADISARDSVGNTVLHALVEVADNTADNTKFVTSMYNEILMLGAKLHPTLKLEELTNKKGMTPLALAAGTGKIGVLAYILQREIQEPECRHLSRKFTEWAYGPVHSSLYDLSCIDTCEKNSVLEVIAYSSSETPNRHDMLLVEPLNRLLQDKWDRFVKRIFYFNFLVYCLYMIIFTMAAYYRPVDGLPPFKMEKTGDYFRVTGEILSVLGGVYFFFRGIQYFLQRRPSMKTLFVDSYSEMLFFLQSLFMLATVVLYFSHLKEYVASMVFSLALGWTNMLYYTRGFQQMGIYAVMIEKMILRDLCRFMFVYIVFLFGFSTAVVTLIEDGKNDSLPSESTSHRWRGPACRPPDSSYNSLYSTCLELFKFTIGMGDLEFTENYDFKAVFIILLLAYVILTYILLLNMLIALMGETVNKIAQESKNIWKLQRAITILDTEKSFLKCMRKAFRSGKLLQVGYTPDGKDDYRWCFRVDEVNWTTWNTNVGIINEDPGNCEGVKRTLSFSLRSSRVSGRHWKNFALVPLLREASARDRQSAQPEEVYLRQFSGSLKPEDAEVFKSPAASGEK

Compound | Maximum arthritis severity score per mouse, mean±SD ([1]; 10 mg/Kg IP every-other-day) | Reduction of maximum arthritis severity scores per mouse vs vehicle ([1]; 10 mg/Kg IP every-other-day) | Arthritis severity index (ASI), mean±S.D. [1, 2] | Reduction in mean cumulative arthritis scores vs vehicle [1, 2] [%] | Arthritis severity (CIA) ([1]; collagen-induced arthritis) | Number of joints with the maximum score ([1]; day 63) | Number of joints with the maximum score ([1]; day 70) | FLS invasion decreased by (FLS) | Reduction of RA FLS invasion (FLS from RA patients; 20 μM) [%] | Reduction of RA FLS invasion (FLS from RA patients; 50 μM) [%] | Stimulation of cannabinoid receptors (cannabinoid receptors) | Stimulation of Trpv1 (Trpv1) | Decrease of IL-1β-induced MMP-3 expression (MMP-3)
C#Cc1cc(O)c(C2C=C(C)CCC2C(=C)C)c(O)c1C1C=C(C)CCC1C(=C)C [Compound 13, (1R,2″R,2R,2″S)-6′-ethynyl-5,5″-dimethyl-2,2″-di(prop-1-en-2-yl)-1,1″,2,2″,3,3″,4,4″-octahydro-[1,1′:3′,1″-terphenyl]-2′,4′-diol] | 7±4.2 | ~50% and 50% | 40.7±36.8 | 50 | Protective in CIA | 5 | 1 | Decreased by 64% | – | – | – | – | –
C=C(C)[C@@H]1CCC(C)=C[C@H]1c1c(O)cc(C)cc1O [Compound O1821] | – | – | – | – | – | – | – | – | 90 | 99.4 | does not stimulate | does not stimulate | 92% and 90%
